The source of these data is US8597904B2, “Pharmaceutical compositions for the treatment of conditions responsive to proteasome inhibition” (priority 2007, dated 2013).

Experiment [1] relates to microtubule-associated protein 1 light chain 3 (LC3). Kind of experiment: immunoblot of LC3 conversion (autophagy) in SK-N-SH cells. The format is cell-based, human. Here is the method: To verify whether autophagy is induced in GlbA-treated cells, levels of microtubule-associated protein 1 light chain 3 (LC3), a reliable marker of autophagosomes, were measured. […] Therefore, this characteristic conversion of LC3 can be used to monitor autophagic activity. SK-N-SH cells were treated with GlbA in the presence or absence of 3-MA, and cell lysates were probed with LC3.

The subject of experiment [2] is SK-N-SH cells. Kind of experiment: sulphorhodamine B (SRB) cell viability / proliferation assay. The format is cell-based, human. As to conditions: 48 hours. From the text: (§1) The mammalian cell lines used to test the effects of syringolin A were human neuroblastoma (NB) cells with either wild type p53 (line SK-N-SH, provided by the American Type Culture Collection [ATCC], Manassas, Va.; Davidoff, et al. 1992. Oncogene 7:127-133; McKenzie, et al. 1999. Clin. Cancer Res. 5:4199-4207; Tweddle, et al. 2001. Am. J. Pathol. 158:2067-2077), mutant p53 (line LAN-1, cysteine to stop codon at residue 182, provided by Dr. Robert Seeger, University of California, Los Angeles, Calif.; Davidoff, et al. 1992. Oncogene 7:127-133; Tweddle, et al. 2001. Cancer Res. 61:8-13; Tweddle, et al. 2003. Cancer Lett. 197:93-98), or human ovarian cancer cells (line SKOV3, provided by Dr. Bonnie Warn-Cramer, Cancer Research Center of Hawaii). NB cells were maintained in RPMI 1640 (Biosource, Rockville, Md.) containing 10% (v/v) heat-inactivated fetal bovine serum (FBS) (Invitrogen, Carlsbad, Calif.), penicillin (100 IU/ml), and streptomycin (100 μg/ml) as previously described (Wallick, et al. 2005. Oncogene 24:5606-5618). SKOV3 cells were maintained in McCoy's 5A with L-glutamine (Mediatech Inc., Herndon, Va.) and containing 10% (v/v) heat-inactivated fetal bovine serum […] (Invitrogen, Carlsbad, Calif.) and gentamicin ([…]). Cells were seeded 18-24 hours before GlbA or SylA treatment and analyzed after 24 and/or 48 hours. Cell numbers were determined using a haemacytometer in the presence of trypan blue (Fisher Scientific, Pittsburgh, Pa.).
(§2) To then test the effects of syringolin A on proliferation, cells at 0.25-0.5×10^5 cells per ml were seeded in 96-well microtiter plates containing 100 μl of culture medium per well. After 24 hours, syringolin A was added to wells to a final concentration of 0.5 μm to 100 μm. Syringolin was not added to parallel samples of control cells. Cells were incubated for 48 hours, photographed, and the viability of cells (calculated as a percentage of control cell counts) was determined using the sulphorhodamine B (SRB) assay as previously reported (Skehan, et al. 1990. J. Natl. Cancer Inst. 82:1107-1112, which is incorporated herein by reference in its entirety). In brief, cell culture medium was removed from the microtiter plate and adherent cells were fixed with 10% (w/v) trichloracetic acid (TCA) for 30 minutes at room temperature. Following four washes with tap water, 100 μl of SRB (Sigma Chemical Co., St. Louis, Mo.) (0.4 g/100 ml 1% [v/v] glacial acetic acid in water) was added and the plate was then incubated for 30 minutes at room temperature, and rinsed four times with 3% (v/v) glacial acetic acid. After addition of 200 μl of 10 mM […] (not pH adjusted) to each well, the plate was incubated on an orbital shaker for 30 minutes until the SRB was uniformly dissolved. The absorption at a wavelength of 560 nm was read using an HTS 7000 Plus Bioassay Reader or a Victor 3, 1420 Multilabel Counter (PerkinElmer, Inc. Boston, Mass.). To record cell morphology with and without syringolin treatment, photomicrographs were taken of cells in 12-well plates or 96-well plates, in the presence or absence of 25 μM syringolin A, using a Nikon Diaphot inverted microscope (Nikon Corp., Tokyo, Japan) and a Carl Zeiss Axiovert 200M inverted microscope (Carl Zeiss, Goettingen, Germany), both equipped with a digital camera and computer software for image processing. Power of magnification for SK-N-SH, LAN-1, and SKOV3 cells was 20×, and for Rat-1 cells was 10×.

The test system of experiment [3] is LAN-1 cells. The description is as above. The format is cell-based, human.
Source text: as §1, §2

Experiment [4] relates to poly (ADP-ribose) polymerase (PARP). Kind of experiment: Western blot of PARP cleavage in SKOV3 cells. As to conditions: SKOV3, 20 μM, 24 and 48 hours. The class given is cell-based, human. Here is the method: The induction of an apoptotic response in cancer cells by the addition of syringolin A was verified by monitoring the cleavage of poly (ADP-ribose) polymerase (PARP), a common response during apoptosis. SK-N-SH cells were cultured in the presence or absence of 20 μM syringolin A for 0, 24 and 48 hours, and cell lysates were then generated as described in Example 4 and probed for the presence of PARP by Western blotting using rabbit polyclonal anti-PARP (#9542) (diluted 1:1000) and the HRP-linked anti-rabbit secondary antibody described in Example 4. The results were representative of four independent experiments. […] The treatment of cells for 48 hours further increased the levels of cleaved PARP, whereas noncleaved PARP disappeared. In a similar manner, syringolin A induced PARP cleavage in SKOV3 cells, but noncleaved PARP was still detected 48 hours after treatment (FIG. 5B).
For orientation: Immunoblotting shows a protein as a band on a membrane.

Experiment [5] has as its system SK-N-SH cells. As to conditions: neuroblastoma (NB) cells, Coleman et al. 2006; cited from earlier work.
For experiment [6], the target named is T1, Papaya latex papain (Carica papaya, UniProt P00784).
T1 construct: Papaya latex papain (Sigma-Aldrich); purchased Sigma-Aldrich; host or cells: papaya latex
T1 sequence (P00784 134-345): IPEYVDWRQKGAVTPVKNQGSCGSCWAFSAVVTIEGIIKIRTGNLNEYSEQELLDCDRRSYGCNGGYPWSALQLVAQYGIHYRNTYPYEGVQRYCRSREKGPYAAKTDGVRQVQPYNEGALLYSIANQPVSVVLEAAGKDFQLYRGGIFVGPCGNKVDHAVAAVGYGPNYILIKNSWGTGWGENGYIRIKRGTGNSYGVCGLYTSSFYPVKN
Kind of experiment: SensoLyte Green Protease Fluorometric Assay, papain inhibition. The class given is biochemical. As to conditions: syringolin A up to 500 μM. The method, then: (§3) To test the specificity of syringolin A inhibition of proteasome activities, bovine pancreas trypsin (Pierce) and Papaya latex papain (Sigma-Aldrich) inhibition assays with syringolin A were performed with the SensoLyte™ Green Protease Fluorometric Assay Kit (AnaSpec., San Jose, Calif., USA) according to the instructions of the manufacturer. Reaction volumes of 100 μl contained an enzyme concentration of 200 ng/ml and various amounts of test inhibitors. Protease activity was monitored at 33° C. in a FluoroCount Microplate Fluorometer (FluoroCount, Packard, Canberra, Australia) using 485 nm excitation and a 550 nm emission filters.

The target in experiment [7] is T2, bovine pancreas trypsin (Bos taurus, UniProt P00760).
T2 construct: bovine pancreas trypsin (Pierce); purchased Pierce; host or cells: bovine pancreas
T2 sequence (P00760 24-246): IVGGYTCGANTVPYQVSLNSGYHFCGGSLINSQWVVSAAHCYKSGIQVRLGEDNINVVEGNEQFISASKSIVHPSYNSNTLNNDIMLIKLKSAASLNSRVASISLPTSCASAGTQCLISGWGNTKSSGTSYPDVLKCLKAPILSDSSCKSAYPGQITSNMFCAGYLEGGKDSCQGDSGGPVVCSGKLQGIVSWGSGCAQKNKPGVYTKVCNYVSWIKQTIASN
Kind of experiment: SensoLyte Green Protease Fluorometric Assay, trypsin inhibition. The class given is biochemical. As to conditions: syringolin A up to 500 μM. The method, then:
as §3

pIC50: −log10 of the molar value.

`CCCCCCC/C=C/C=C/C(=O)N[C@H](C(=O)N[C@H]1C[C@@H](O)CCNC(=O)/C=C/[C@H](C)NC1=O)[C@@H](C)O` [glidobactin A]: in experiment [1] (GlbA with 3-MA pre-treatment), the “GlbA-induced autophagy after pre-treatment with 3-MA” value is reported as “reverted GlbA-induced autophagy”. In experiment [1] (compared to untreated control cells), the “LC3-II amount / conversion of LC3” value is “larger amounts of LC3-II”.

With `CC(C)[C@H](NC(=O)N[C@H](C(=O)N[C@H]1/C=C/CCNC(=O)/C=C/[C@H](C(C)C)NC1=O)C(C)C)C(=O)O` [syringolin A], the cell morphology entry is on record as “induced significant morphological changes” in experiment [2] (25 μM) and “induced significant morphological changes” in experiment [3] (LAN-1, 25 μM, 48 hours). In addition, the cell viability entry is “reduced the cell viability” in experiment [2] (0.5 to 100 μm, dose-dependent) and “reduced the cell viability” in experiment [3] (LAN-1, 0.5 to 100 μm, 48 hours, dose-dependent). Besides, the pIC50 in experiment [2] (Homo sapiens, SRB assay, read-out: IC50 (inhibitor concentration at which cell proliferation rate is reduced by 50% relative to control)) is 4.60 to 4.70; in experiment [3] (Homo sapiens, LAN1, LAN-1, 48 hours, SRB assay, read-out: IC50 (inhibitor concentration at which cell proliferation rate is reduced by 50% relative to control)), 4.60 to 4.70. In addition, the PARP cleavage entry in experiment [4] is recorded as “induces apoptosis-associated PARP cleavage”. Moreover, the “reaction with Annexin V” value in experiment [5] was “strongly react with Annexin V”. Besides, in experiment [6], the papain activity entry is given as “not affected”. Also, the trypsin activity result in experiment [7] is “not affected”.
